Values of other authors, collected in patent US8703192B2, “Dosage form containing pantoprazole as active ingredient” (Takeda GmbH, priority 2003, dated 2014).

Conditions: in comparison to pantoprazole itself or to pantoprazole sodium sesquihydrate

In the case of `COc1ccnc(C[S+]([O-])c2nc3cc(OC(F)F)ccc3[n-]2)c1OC.COc1ccnc(C[S+]([O-])c2nc3cc(OC(F)F)ccc3[n-]2)c1OC.O.O.[Mg+2]` (stereo not shown) [Magnesium bis[5-[difluoromethoxy]-2-[[3,4-dimethoxy-2-pyridinyl]-methyl]sulfinyl]-1H-benzimidazolide]dihydrate], the stability properties is listed as “improved stability properties”.
